ChEMBL document CHEMBL5321272 (J Med Chem, 2023)
Activity calls are given as the source filed them. The calls are words filed in the database; no cut-off is given here.

Test system: BaF3
Assay: Antiproliferative activity against mouse BaF3 cells harboring FLT3 D835V mutant assessed as reduction in cell viability incubated for 72 hrs by CellTiter 96 Aqueous One Solution Cell Proliferation Assay
Assay type: functional, cell-based
Conditions: not given
For CC(=O)N1CCc2cc(Nc3ncc(C(F)(F)F)c(N[C@H]4CC[C@@H](N)CC4)n3)ccc21, the Activity was “Active”.
For CC(=O)N1CCc2ccc(Nc3ncc(C(F)(F)F)c(N[C@H]4CC[C@@H](N)CC4)n3)cc2C1, the Activity was “Active”.
With N[C@H]1CC[C@@H](Nc2nc(Nc3ccc4c(c3)CN(C(=O)CO)C4)ncc2C(F)(F)F)CC1 the Activity was “Active”.
For CC(C)(O)CC(=O)N1CCc2ccc(Nc3ncc(C(F)(F)F)c(N[C@H]4CC[C@@H](N)CC4)n3)cc2C1, the Activity was “Active”.
In the case of CN1CCc2cc(Nc3ncc(C(F)(F)F)c(N[C@H]4CC[C@@H](N)CC4)n3)ccc2C1=O, the Activity is reported as “Active”.
With CC(C)(O)CC(=O)N1CCc2cc(Nc3ncc(C(F)(F)F)c(N[C@H]4CC[C@@H](N)CC4)n3)ccc21 the Activity was “Active”.

Molecular target: T1, Serine/threonine-protein kinase Chk1 (Homo sapiens, UniProt O14757)
T1 sequence (O14757 whole entry): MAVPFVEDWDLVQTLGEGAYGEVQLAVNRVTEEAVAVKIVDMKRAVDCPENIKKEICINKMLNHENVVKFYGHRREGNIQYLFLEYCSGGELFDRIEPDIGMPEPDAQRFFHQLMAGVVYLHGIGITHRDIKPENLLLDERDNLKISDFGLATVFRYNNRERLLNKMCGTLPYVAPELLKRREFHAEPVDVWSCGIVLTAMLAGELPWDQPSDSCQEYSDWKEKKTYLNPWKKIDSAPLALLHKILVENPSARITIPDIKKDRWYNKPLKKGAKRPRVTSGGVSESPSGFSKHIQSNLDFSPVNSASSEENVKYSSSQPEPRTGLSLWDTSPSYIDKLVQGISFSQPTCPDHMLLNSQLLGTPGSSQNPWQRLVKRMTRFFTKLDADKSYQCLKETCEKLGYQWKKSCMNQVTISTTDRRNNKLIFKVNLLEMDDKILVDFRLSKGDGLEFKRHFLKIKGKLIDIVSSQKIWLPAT
Assay: not given
Conditions: not given
For Cn1ccc2cc(Nc3ncc(C(F)(F)F)c(N[C@H]4CC[C@@H](N)CC4)n3)ccc2c1=O, the IC50 was 26.3 nM.
CC(C)(O)Cn1ccc2cc(Nc3ncc(C(F)(F)F)c(N[C@H]4CC[C@@H](N)CC4)n3)ccc2c1=O showed an IC50 of 124 nM.
Work on CC(=O)N[C@H]1CC[C@@H](Nc2nc(Nc3ccc4c(c3)CCN(C(=O)CC(C)(C)O)C4)ncc2C(F)(F)F)CC1 yielded an IC50 of 1090 nM.
In the case of CC(C)(O)CC(=O)N1CCc2nc(Nc3ncc(C(F)(F)F)c(N[C@H]4CC[C@@H](N)CC4)n3)ccc2C1, the IC50 is reported as 362 nM.
For CC(=O)N1CCc2cc(Nc3ncc(C(F)(F)F)c(N[C@H]4CC[C@@H](N)CC4)n3)ccc21, the IC50 was 10.7 nM.
CC(=O)N1CCc2ccc(Nc3ncc(C(F)(F)F)c(N[C@H]4CC[C@@H](N)CC4)n3)cc2C1 gave an IC50 of 7.61 nM.
Work on N[C@H]1CC[C@@H](Nc2nc(Nc3ccc4c(c3)CN(C(=O)CO)C4)ncc2C(F)(F)F)CC1 yielded an IC50 of 7.6 nM.
For CC(C)(O)CC(=O)N1CCc2ccc(Nc3ncc(C(F)(F)F)c(N[C@H]4CC[C@@H](N)CC4)n3)cc2C1, the IC50 was 9.9 nM.
In the case of CN1CCc2cc(Nc3ncc(C(F)(F)F)c(N[C@H]4CC[C@@H](N)CC4)n3)ccc2C1=O, the IC50 is reported as 11.7 nM.
In the case of CC(C)(O)CC(=O)N1CCc2cc(Nc3ncc(C(F)(F)F)c(N[C@H]4CC[C@@H](N)CC4)n3)ccc21, the IC50 is reported as 19 nM.

Molecular target: Receptor-type tyrosine-protein kinase FLT3 (Homo sapiens, UniProt P36888, D835Y)
Assay: not given
Conditions: not given
For CC(C)(O)Cn1ccc2cc(Nc3ncc(C(F)(F)F)c(N[C@H]4CC[C@@H](N)CC4)n3)ccc2c1=O, the IC50 was 3.91 nM.
Work on CC(=O)N[C@H]1CC[C@@H](Nc2nc(Nc3ccc4c(c3)CCN(C(=O)CC(C)(C)O)C4)ncc2C(F)(F)F)CC1 yielded an IC50 of 18.9 nM.
With CC(C)(O)CC(=O)N1CCc2nc(Nc3ncc(C(F)(F)F)c(N[C@H]4CC[C@@H](N)CC4)n3)ccc2C1 the IC50 was 77.1 nM.
Compound CC(=O)N1CCc2cc(Nc3ncc(C(F)(F)F)c(N[C@H]4CC[C@@H](N)CC4)n3)ccc21 has an IC50 of 0.98 nM.
With CC(=O)N1CCc2ccc(Nc3ncc(C(F)(F)F)c(N[C@H]4CC[C@@H](N)CC4)n3)cc2C1 the IC50 was 1.24 nM.
N[C@H]1CC[C@@H](Nc2nc(Nc3ccc4c(c3)CN(C(=O)CO)C4)ncc2C(F)(F)F)CC1 gave an IC50 of 1.06 nM.
In the case of CC(C)(O)CC(=O)N1CCc2ccc(Nc3ncc(C(F)(F)F)c(N[C@H]4CC[C@@H](N)CC4)n3)cc2C1, the IC50 is reported as 2.11 nM.
Work on CN1CCc2cc(Nc3ncc(C(F)(F)F)c(N[C@H]4CC[C@@H](N)CC4)n3)ccc2C1=O yielded an IC50 of 1.15 nM.
CC(C)(O)CC(=O)N1CCc2cc(Nc3ncc(C(F)(F)F)c(N[C@H]4CC[C@@H](N)CC4)n3)ccc21 showed an IC50 of 2.88 nM.

Test system: not listed separately
Assay: Selectivity ratio of IC50 for inhibition of c-KIT (unknown origin) to IC50 for inhibition of FLT3 D835Y mutant (unknown origin)
Conditions: not given
CC(=O)N1CCc2cc(Nc3ncc(C(F)(F)F)c(N[C@H]4CC[C@@H](N)CC4)n3)ccc21 showed a Ratio IC50 of 4870.
Work on CC(=O)N1CCc2ccc(Nc3ncc(C(F)(F)F)c(N[C@H]4CC[C@@H](N)CC4)n3)cc2C1 yielded a Ratio IC50 of 3720.
In the case of N[C@H]1CC[C@@H](Nc2nc(Nc3ccc4c(c3)CN(C(=O)CO)C4)ncc2C(F)(F)F)CC1, the Ratio IC50 is reported as 1870.
For CC(C)(O)CC(=O)N1CCc2ccc(Nc3ncc(C(F)(F)F)c(N[C@H]4CC[C@@H](N)CC4)n3)cc2C1, the Ratio IC50 was 1820.
CN1CCc2cc(Nc3ncc(C(F)(F)F)c(N[C@H]4CC[C@@H](N)CC4)n3)ccc2C1=O gave a Ratio IC50 of 4150.
CC(C)(O)CC(=O)N1CCc2cc(Nc3ncc(C(F)(F)F)c(N[C@H]4CC[C@@H](N)CC4)n3)ccc21 gave a Ratio IC50 of 1760.

Test system: BaF3
Assay: Antiproliferative activity against mouse BaF3 cells harboring FLT3 F691L mutant assessed as reduction in cell viability incubated for 72 hrs by CellTiter 96 Aqueous One Solution Cell Proliferation Assay
Assay type: functional, cell-based
Conditions: not given
In the case of CC(=O)N1CCc2cc(Nc3ncc(C(F)(F)F)c(N[C@H]4CC[C@@H](N)CC4)n3)ccc21, the Activity is reported as “Active”.
For CC(=O)N1CCc2ccc(Nc3ncc(C(F)(F)F)c(N[C@H]4CC[C@@H](N)CC4)n3)cc2C1, the Activity was “Active”.
In the case of N[C@H]1CC[C@@H](Nc2nc(Nc3ccc4c(c3)CN(C(=O)CO)C4)ncc2C(F)(F)F)CC1, the Activity is reported as “Active”.
In the case of CC(C)(O)CC(=O)N1CCc2ccc(Nc3ncc(C(F)(F)F)c(N[C@H]4CC[C@@H](N)CC4)n3)cc2C1, the Activity is reported as “Active”.
In the case of CN1CCc2cc(Nc3ncc(C(F)(F)F)c(N[C@H]4CC[C@@H](N)CC4)n3)ccc2C1=O, the Activity is reported as “Active”.
In the case of CC(C)(O)CC(=O)N1CCc2cc(Nc3ncc(C(F)(F)F)c(N[C@H]4CC[C@@H](N)CC4)n3)ccc21, the Activity is reported as “Active”.

Test system: MV4-11
Assay: cells
Conditions: Homo sapiens, MV4-11, 72 h
Description: Antiproliferative activity against human MV4-11 cells assessed as reduction in cell viability incubated for 72 hrs by CellTiter 96 Aqueous One Solution Cell Proliferation Assay
With CC(C)(O)Cn1ccc2cc(Nc3ncc(C(F)(F)F)c(N[C@H]4CC[C@@H](N)CC4)n3)ccc2c1=O the IC50 was 0.62 nM.
With CC(=O)N[C@H]1CC[C@@H](Nc2nc(Nc3ccc4c(c3)CCN(C(=O)CC(C)(C)O)C4)ncc2C(F)(F)F)CC1 the IC50 was 20.7 nM.
Work on CC(C)(O)CC(=O)N1CCc2nc(Nc3ncc(C(F)(F)F)c(N[C@H]4CC[C@@H](N)CC4)n3)ccc2C1 yielded an IC50 of 21.4 nM.
Work on CC(=O)N1CCc2cc(Nc3ncc(C(F)(F)F)c(N[C@H]4CC[C@@H](N)CC4)n3)ccc21 yielded an IC50 of 2.07 nM.
CC(=O)N1CCc2ccc(Nc3ncc(C(F)(F)F)c(N[C@H]4CC[C@@H](N)CC4)n3)cc2C1 showed an IC50 of 0.35 nM.
Compound N[C@H]1CC[C@@H](Nc2nc(Nc3ccc4c(c3)CN(C(=O)CO)C4)ncc2C(F)(F)F)CC1 has an IC50 of 0.14 nM.
CC(C)(O)CC(=O)N1CCc2ccc(Nc3ncc(C(F)(F)F)c(N[C@H]4CC[C@@H](N)CC4)n3)cc2C1 showed an IC50 of 0.44 nM.
With CN1CCc2cc(Nc3ncc(C(F)(F)F)c(N[C@H]4CC[C@@H](N)CC4)n3)ccc2C1=O the IC50 was 1.2 nM.
For CC(C)(O)CC(=O)N1CCc2cc(Nc3ncc(C(F)(F)F)c(N[C@H]4CC[C@@H](N)CC4)n3)ccc21, the IC50 was 2.21 nM.

Molecular target: hERG (KCNH2) (Homo sapiens, UniProt Q12809)
Sequence (Q12809 whole entry): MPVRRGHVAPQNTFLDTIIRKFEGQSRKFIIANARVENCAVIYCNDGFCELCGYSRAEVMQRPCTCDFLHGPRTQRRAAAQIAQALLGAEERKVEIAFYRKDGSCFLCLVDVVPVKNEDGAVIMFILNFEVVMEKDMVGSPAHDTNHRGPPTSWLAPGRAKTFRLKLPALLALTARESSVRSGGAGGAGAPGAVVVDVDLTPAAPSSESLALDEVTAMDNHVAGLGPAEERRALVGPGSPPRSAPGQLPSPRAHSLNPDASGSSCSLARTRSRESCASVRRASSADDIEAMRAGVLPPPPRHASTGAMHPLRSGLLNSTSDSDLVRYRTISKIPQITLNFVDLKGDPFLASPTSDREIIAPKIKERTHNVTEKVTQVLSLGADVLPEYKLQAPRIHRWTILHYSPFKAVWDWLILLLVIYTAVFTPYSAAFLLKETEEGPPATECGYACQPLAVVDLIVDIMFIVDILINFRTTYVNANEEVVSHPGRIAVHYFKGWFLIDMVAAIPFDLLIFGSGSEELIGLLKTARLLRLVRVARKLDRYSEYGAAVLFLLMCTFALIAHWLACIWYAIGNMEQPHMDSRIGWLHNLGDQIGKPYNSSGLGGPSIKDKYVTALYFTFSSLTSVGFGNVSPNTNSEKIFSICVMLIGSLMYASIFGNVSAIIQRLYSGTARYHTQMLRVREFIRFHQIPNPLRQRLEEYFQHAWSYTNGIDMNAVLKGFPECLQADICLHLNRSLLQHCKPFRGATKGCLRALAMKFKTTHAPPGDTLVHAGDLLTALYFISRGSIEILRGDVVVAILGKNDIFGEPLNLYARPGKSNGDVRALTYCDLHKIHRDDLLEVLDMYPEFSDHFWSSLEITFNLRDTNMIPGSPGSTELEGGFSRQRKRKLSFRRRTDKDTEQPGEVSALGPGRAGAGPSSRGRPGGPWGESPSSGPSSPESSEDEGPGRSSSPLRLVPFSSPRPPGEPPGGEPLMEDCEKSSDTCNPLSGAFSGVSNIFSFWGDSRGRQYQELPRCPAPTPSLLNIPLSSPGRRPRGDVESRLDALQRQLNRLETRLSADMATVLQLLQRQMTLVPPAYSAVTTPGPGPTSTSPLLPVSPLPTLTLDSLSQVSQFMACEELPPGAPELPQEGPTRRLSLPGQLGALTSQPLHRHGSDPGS
Assay: Inhibition of hERG expressed in HEK293 cells at 20 uM by whole cell patch clamp analysis
Assay type: toxicity, cell-based
Conditions: HEK293 cells expressing hERG
Compound Cn1ccc2cc(Nc3ncc(C(F)(F)F)c(N[C@H]4CC[C@@H](N)CC4)n3)ccc2c1=O has an inhibition at 20 µM of 75.9%.
For CC(C)(O)Cn1ccc2cc(Nc3ncc(C(F)(F)F)c(N[C@H]4CC[C@@H](N)CC4)n3)ccc2c1=O, the inhibition at 20 µM was 22.1%.
Compound CC(=O)N1CCc2ccc(Nc3ncc(C(F)(F)F)c(N[C@H]4CC[C@@H](N)CC4)n3)cc2C1 has an inhibition at 20 µM of 43.4%.
Work on CC(C)(O)CC(=O)N1CCc2ccc(Nc3ncc(C(F)(F)F)c(N[C@H]4CC[C@@H](N)CC4)n3)cc2C1 yielded an inhibition at 20 µM of 43.9%.
Compound CN1CCc2cc(Nc3ncc(C(F)(F)F)c(N[C@H]4CC[C@@H](N)CC4)n3)ccc2C1=O has an inhibition at 20 µM of 40.9%.

Test system: BaF3
Assay: Antiproliferative activity against mouse BaF3 cells harboring FLT3 D835F mutant assessed as reduction in cell viability incubated for 72 hrs by CellTiter 96 Aqueous One Solution Cell Proliferation Assay
Assay type: functional, cell-based
Conditions: not given
For CC(=O)N1CCc2cc(Nc3ncc(C(F)(F)F)c(N[C@H]4CC[C@@H](N)CC4)n3)ccc21, the Activity was “Active”.
In the case of CC(=O)N1CCc2ccc(Nc3ncc(C(F)(F)F)c(N[C@H]4CC[C@@H](N)CC4)n3)cc2C1, the Activity is reported as “Active”.
With N[C@H]1CC[C@@H](Nc2nc(Nc3ccc4c(c3)CN(C(=O)CO)C4)ncc2C(F)(F)F)CC1 the Activity was “Active”.
For CC(C)(O)CC(=O)N1CCc2ccc(Nc3ncc(C(F)(F)F)c(N[C@H]4CC[C@@H](N)CC4)n3)cc2C1, the Activity was “Active”.
With CN1CCc2cc(Nc3ncc(C(F)(F)F)c(N[C@H]4CC[C@@H](N)CC4)n3)ccc2C1=O the Activity was “Active”.
For CC(C)(O)CC(=O)N1CCc2cc(Nc3ncc(C(F)(F)F)c(N[C@H]4CC[C@@H](N)CC4)n3)ccc21, the Activity was “Active”.

Molecular target: Mast/stem cell growth factor receptor Kit (Homo sapiens, UniProt P10721)
Sequence (P10721 whole entry): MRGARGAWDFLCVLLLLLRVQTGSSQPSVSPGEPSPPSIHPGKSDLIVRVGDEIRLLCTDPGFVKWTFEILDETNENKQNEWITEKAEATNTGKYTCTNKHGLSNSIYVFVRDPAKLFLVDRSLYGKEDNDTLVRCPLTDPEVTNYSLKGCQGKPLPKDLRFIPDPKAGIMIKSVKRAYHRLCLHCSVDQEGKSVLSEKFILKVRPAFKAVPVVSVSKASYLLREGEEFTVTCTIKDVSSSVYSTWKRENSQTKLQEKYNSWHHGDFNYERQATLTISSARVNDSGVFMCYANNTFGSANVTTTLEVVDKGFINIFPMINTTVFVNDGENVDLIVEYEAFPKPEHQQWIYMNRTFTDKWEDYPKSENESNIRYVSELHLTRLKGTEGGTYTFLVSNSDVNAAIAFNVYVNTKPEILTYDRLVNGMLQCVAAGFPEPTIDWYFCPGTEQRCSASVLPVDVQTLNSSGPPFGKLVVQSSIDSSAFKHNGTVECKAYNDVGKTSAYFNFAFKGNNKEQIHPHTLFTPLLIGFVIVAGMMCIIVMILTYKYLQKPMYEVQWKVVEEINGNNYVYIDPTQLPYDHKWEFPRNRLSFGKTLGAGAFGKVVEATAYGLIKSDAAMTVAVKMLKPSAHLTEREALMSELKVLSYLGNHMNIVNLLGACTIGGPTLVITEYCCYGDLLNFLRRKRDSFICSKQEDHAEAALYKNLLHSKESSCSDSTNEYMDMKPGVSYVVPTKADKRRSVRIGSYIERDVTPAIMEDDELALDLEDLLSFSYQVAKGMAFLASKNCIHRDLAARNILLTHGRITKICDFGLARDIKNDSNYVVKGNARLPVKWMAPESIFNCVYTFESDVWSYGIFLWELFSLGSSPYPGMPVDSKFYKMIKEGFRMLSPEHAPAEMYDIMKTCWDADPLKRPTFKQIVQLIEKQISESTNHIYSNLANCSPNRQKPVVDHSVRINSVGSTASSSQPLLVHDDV
Assay: Inhibition of c-KIT (unknown origin) using peptide substrate TK-S and ATP as substrate incubated for 1 hr by HTRF assay
Assay type: toxicity
Conditions: not given
Compound CC(=O)N1CCc2cc(Nc3ncc(C(F)(F)F)c(N[C@H]4CC[C@@H](N)CC4)n3)ccc21 has an IC50 of 4.78 µM.
CC(=O)N1CCc2ccc(Nc3ncc(C(F)(F)F)c(N[C@H]4CC[C@@H](N)CC4)n3)cc2C1 gave an IC50 of 4.62 µM.
N[C@H]1CC[C@@H](Nc2nc(Nc3ccc4c(c3)CN(C(=O)CO)C4)ncc2C(F)(F)F)CC1 showed an IC50 of 1.99 µM.
CC(C)(O)CC(=O)N1CCc2ccc(Nc3ncc(C(F)(F)F)c(N[C@H]4CC[C@@H](N)CC4)n3)cc2C1 gave an IC50 of 3.84 µM.
Work on CN1CCc2cc(Nc3ncc(C(F)(F)F)c(N[C@H]4CC[C@@H](N)CC4)n3)ccc2C1=O yielded an IC50 of 4.77 µM.
In the case of CC(C)(O)CC(=O)N1CCc2cc(Nc3ncc(C(F)(F)F)c(N[C@H]4CC[C@@H](N)CC4)n3)ccc21, the IC50 is reported as 5.06 µM.
